Consider 14 compounds from ChEMBL document CHEMBL1201862, “PubChem BioAssay data set” (2004).

In one assay the target is Mu-type opioid receptor (Homo sapiens, UniProt P35372). Put plainly: SAR Analysis of Antagonists of the MOR Receptor using an Image-Based Assay - Set 3. [Related pubchem assays (depositor defined):AID1777, AID1785, AID1786, AID1966, AID2133, AID2136, AID2284, AID2285, AID2420]. It is filed as functional.
For assay [1], the target named is Delta-type opioid receptor (Homo sapiens, UniProt P41143). Description: SAR Analysis of Antagonists of the DOR Receptor using an Image-Based Assay - Set 3. [Related pubchem assays (depositor defined):AID1777, AID1785]. It is filed as functional.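 Also: U2OS cells expressing DOR1 and beta-arrestin GFP stimulated with 100 nM SNC80; imaging of GFP-tagged beta-arrestin moving into spots after receptor activation.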
Assay [2] concerns the target T1, Kappa-type opioid receptor (Homo sapiens, UniProt P41145). Description: SAR analysis of small molecule antagonists of the kappa opioid receptor via a luminescent beta-arrestin assay - Set 3. [Related pubchem assays (depositor defined):AID1777, AID1778, AID1785, AID1786, AID1966, AID2133, AID2136, AID2285, AID2495]. It counts as functional.
Assay [3] addresses T1, Kappa-type opioid receptor. Description: SAR analysis of Antagonists of the Kappa Opioid Receptor (KOR) using an Image-Based Assay - Set 3. [Related pubchem assays (depositor defined):AID1777, AID1785]. It is filed as functional.
Assay [4] has as its target T2, Mannose-6-phosphate isomerase (Homo sapiens, UniProt P34949).
T2 sequence (P34949 whole entry): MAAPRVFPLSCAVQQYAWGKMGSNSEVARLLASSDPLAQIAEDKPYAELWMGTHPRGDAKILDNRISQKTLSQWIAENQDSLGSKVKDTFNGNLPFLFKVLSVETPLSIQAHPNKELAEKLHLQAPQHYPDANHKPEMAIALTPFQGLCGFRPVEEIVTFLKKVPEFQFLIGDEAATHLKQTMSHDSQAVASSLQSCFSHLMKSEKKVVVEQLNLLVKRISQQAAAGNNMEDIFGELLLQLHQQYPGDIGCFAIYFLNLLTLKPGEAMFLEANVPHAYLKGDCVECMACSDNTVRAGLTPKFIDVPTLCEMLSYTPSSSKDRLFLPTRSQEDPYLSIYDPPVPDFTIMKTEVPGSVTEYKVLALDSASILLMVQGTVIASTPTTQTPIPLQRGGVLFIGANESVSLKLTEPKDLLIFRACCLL
Description: Confirmation of compounds inhibiting phosphomannose isomerase (PMI) via a fluorescence intensity assay using a high concentration of mannose 6-phosphate. [Related pubchem assays (depositor defined):AID1209, AID1220, AID1545, AID1553, AID1620].

Assay [5] deals with T2, Mannose-6-phosphate isomerase. Description: PMI enzyme inhibitors, confirmation, biochemical, fluorescence intensity (AID 1535).
Another assay addresses Phosphomannomutase 2 (Homo sapiens, UniProt O15305). Put plainly: Counter screen SAR assay for PMM2 inhibitors via a fluorescence intensity assay. [Related pubchem assays (depositor defined):AID1545, AID1574].
Assay [6] is described as follows: Luminescence Cell-Based Dose Response HTS to Identify Activators of Luciferase Translation or Activity in H4-C Neuroglioblastoma Cells. [Related pubchem assays: 1829 (Project Summary), 1814 (Primary HTS)]. It counts as functional.
Assay [7] can be described thus: Luminescence Cell-Based Dose Retest to Confirm Activators of 5'UTR Stem-Loop Driven Alpha-Synuclein mRNA Translation in H4 Neuroglioblastoma Cells. [Related pubchem assays (depositor defined):AID1813, AID1829]. It is filed as functional.
A short description of assay [8]: Luminescence Cell-Based Dose Response HTS to Identify Activators of 5'UTR Stem-Loop Driven Prion Protein mRNA Translation in H4-C Neuroglioblastoma Cells. [Related pubchem assays: 1829 (Project Summary), 1814 (Primary HTS)]. It counts as functional.
Assay [9] in a line: Luminescence Cell-Based Dose Confirmation HTS to Identify Activators of 5'UTR Stem-Loop Driven Alpha-Synuclein mRNA Translation in H4 Neuroglioblastoma Cells. [Related pubchem assays: 1829 (Project Summary), 1814 (Primary HTS)]. It counts as functional.
The nature of assay [10]: Luminescence Cell-Based Dose Response HTS to Identify Activators of Luciferase Translation or Activity in H4 […] Cells. [Related pubchem assays: 1829 (Project Summary), 1814 (Primary HTS)]. It is filed as functional.
For the next assay, the system named is H4. Put plainly: Luminescence Cell-Based Dose Response HTS to Identify Activators of 5'UTR Stem-Loop Driven Prion Protein mRNA Translation in H4 Neuroglioblastoma Cells. [Related pubchem assays: 1829 (Project Summary), 1814 (Primary HTS)]. It is filed as functional. As to conditions: Homo sapiens.
Assay [11] addresses T3, Runt-related transcription factor 1/Core-binding factor subunit beta (Homo sapiens, UniProt Q01196+Q13951). Put plainly: inhibitors of RUNX1 Runt–CBFb-SMMHC binding, primary screen, biochemical, FRET, Cerulean-Runt, Venus-CBFb-SMMHC, uHTS (AID 1434).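 Also: partner is the CBFb-SMMHC leukemia fusion protein rather than wild-type CBFb.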 It is filed as protein assay.
The target of assay [12] is T3, Runt-related transcription factor 1/Core-binding factor subunit beta. Description: inhibitors of RUNX1 Runt–CBFb-SMMHC binding, biochemical, TR-FRET (AID 1438). It counts as protein assay. Background: In TR-FRET formats the signal depends on donor and acceptor labels being close together.
Assay [13] has as its target Alkaline phosphatase, placental type (Homo sapiens, UniProt P05187). Description: PLAP enzyme inhibitors, confirmation, biochemical, luminescence (AID 1512). It is filed as functional.
The target of the next assay is T4, Coagulation factor XII (Homo sapiens, UniProt P00748).
T4 sequence (P00748 whole entry): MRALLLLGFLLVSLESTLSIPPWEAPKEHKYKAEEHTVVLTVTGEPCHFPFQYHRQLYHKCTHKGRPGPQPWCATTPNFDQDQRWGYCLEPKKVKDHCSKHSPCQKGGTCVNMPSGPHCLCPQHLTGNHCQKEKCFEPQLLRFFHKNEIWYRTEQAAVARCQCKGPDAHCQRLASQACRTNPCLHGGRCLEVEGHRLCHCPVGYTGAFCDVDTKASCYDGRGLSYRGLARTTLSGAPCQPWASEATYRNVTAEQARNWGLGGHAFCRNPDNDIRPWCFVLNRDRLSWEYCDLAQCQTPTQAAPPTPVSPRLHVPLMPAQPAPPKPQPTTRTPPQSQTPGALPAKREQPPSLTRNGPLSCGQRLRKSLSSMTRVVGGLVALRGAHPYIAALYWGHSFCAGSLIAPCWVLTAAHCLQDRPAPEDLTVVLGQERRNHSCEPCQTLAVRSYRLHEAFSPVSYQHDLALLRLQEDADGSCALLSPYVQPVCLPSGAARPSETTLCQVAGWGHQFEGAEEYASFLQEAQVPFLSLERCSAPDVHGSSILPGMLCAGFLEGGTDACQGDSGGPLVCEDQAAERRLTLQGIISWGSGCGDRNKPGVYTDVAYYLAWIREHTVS
Put plainly: FXIIa inhibitor potency, concentration-response, biochemical (AID 716). It is filed as functional.

For another assay, the target named is Troponin, cardiac muscle (Homo sapiens, UniProt P19429+P45379+P63316). Put plainly: Fluorescence-based biochemical high throughput dose response assay for activators of the calcium sensitivity of cardiac Regulated Thin Filaments (RTF). [Related pubchem assays (depositor defined):AID493008, AID493018, AID504382, AID504383]. It counts as protein-complex assay.

For assay [14], the target named is T5, Alkaline phosphatase, tissue-nonspecific isozyme (Homo sapiens, UniProt P05186).
T5 sequence (P05186 whole entry): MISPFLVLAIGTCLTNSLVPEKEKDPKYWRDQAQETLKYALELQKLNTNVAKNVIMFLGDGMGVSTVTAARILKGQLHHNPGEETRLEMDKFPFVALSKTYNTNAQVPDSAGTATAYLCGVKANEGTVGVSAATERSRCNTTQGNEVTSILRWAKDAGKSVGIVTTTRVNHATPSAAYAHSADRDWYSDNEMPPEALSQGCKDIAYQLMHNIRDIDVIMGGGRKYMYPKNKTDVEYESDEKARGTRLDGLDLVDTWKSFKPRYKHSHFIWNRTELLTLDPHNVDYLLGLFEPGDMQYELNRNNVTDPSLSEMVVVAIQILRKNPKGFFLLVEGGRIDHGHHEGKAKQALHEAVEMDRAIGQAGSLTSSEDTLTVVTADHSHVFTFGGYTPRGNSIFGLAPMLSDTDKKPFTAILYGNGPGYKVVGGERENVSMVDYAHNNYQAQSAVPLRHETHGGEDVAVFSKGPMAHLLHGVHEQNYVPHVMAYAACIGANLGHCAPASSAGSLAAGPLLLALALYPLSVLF
Put plainly: human TNAP enzyme inhibitors, SAR follow-up, biochemical, luminescent, dose response (AID 1056).

For a further assay, the target named is SUMO-activating enzyme (Homo sapiens, UniProt Q9UBT2). Description: SUMOylation inhibitor hit validation, confirmation, SUMOylation inhibitor project, biochemical, AlphaScreen (AID 2018). It is filed as functional. A general note: Alpha assays give light when donor and acceptor beads are brought close together.
Assay [15] in a line: growth suppression of PTEN-null colon cells, dose response, cell-based, HCT116 PTEN knockout (AID 1047).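 Also: HCT116 colon tumor cells with PTEN knocked out; cells exposed to compound for 60 hours before readout; potency for loss of cell viability measured by luminescence.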 It counts as functional.
Assay [16] in a line: growth suppression of beta-catenin-knockout colon cells, dose response, cell-based, HCT116, human colon tumor (AID 1045).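 Also: HCT116 colon tumor cells with beta catenin knocked out; cells exposed to compound for 60 hours.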 It counts as functional.
Assay [17] in a line: Artemis endonuclease inhibitor potency, dose response, biochemical, fluorescence intensity (AID 720701).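 Also: Artemis endonuclease enzyme.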 It counts as functional.
The target of assay [18] is NACHT, LRR and PYD domains-containing protein 3 (Homo sapiens, UniProt Q96P20). Put plainly: NALP3 inhibitors in yeast, dose response, luminescent (AID 488799). It is filed as functional.
For assay [19], the target named is Cystic fibrosis transmembrane conductance regulator/Golgi-associated PDZ and coiled-coil motif-containing protein (Homo sapiens, UniProt P13569+Q9HD26). Put plainly: CAL PDZ peptide-binding inhibitors, dose response, biochemical, fluorescence polarization, Cerulean-tagged CAL PDZ, cherry-picks (AID 504773). Background: In fluorescence polarisation assays a small probe gives low polarisation when free and higher when bound to something large.

The target of assay [20] is Phosphoethanolamine/phosphocholine phosphatase (Homo sapiens, UniProt Q8TCT1). Description: SAR assay for compounds that inhibit PHOSPHO1. [Related pubchem assays (depositor defined):AID1545, AID1565, AID1574].
For assay [21], the target named is DNA damage-inducible transcript 3 protein (Mus musculus, UniProt P35639). It is filed as functional, Cricetulus griseus.
For the next assay, the target named is X-box-binding protein 1 (Homo sapiens, UniProt P17861). It is filed as functional, Cricetulus griseus.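 Also: confirmatory dose-response counter-screen serving a CHOP assay.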
For the next assay, the target named is Integrin alpha-4 (Homo sapiens, UniProt P13612). Description: VLA-4 integrin allosteric ligands, SAR follow-up, cell-based, LIBS antibody binding, flow cytometry (AID 488791). It is filed as functional.

Each structure is given as a SMILES string. Active and inactive are the calls of the source.

What is called IC50 is the concentration at which inhibition is half-maximal. The term EC50 denotes the concentration needed to bring the measured effect to its halfway point. By AC50 is commonly meant the concentration at which the activity in the assay is half-maximal.

As to `O=C(Cn1c(=O)c2cccn2c2cccnc21)NCCCN1CCC(Cc2ccccc2)CC1`, the IC50 at Mu-type opioid receptor is > 32 µM (inactive); in assay [1] it was > 32 µM (inactive); in assay [2], 4.65 µM (active); in assay [3], 1.31 µM (active).

Regarding `O=c1c2ccc(O)cc2sn1C1CCCC1`, the IC50 (in assay [4]; in assay [5]; on Phosphomannomutase 2) was > 100 µM (inactive) throughout.

For the compound `O=C1Nc2ccccc2S/C1=C\C(=O)N1CCCC1`, the EC50 in [6] is 13.2 µM (active); in assay [7], > 195 µM (inactive); in assay [8], 9.5 µM (active); in assay [9], 0.264 µM (active); in assay [10], 8.16 µM (active); in the assay on H4, > 120 µM (not active).

For the compound `C/C(=N\Nc1nc(-c2cc(C)ccc2C)cs1)c1cc2c(ccc3ccccc32)oc1=O`, the values for the IC50 in assay [11] and in [12] were > 100 µM (inactive) and 10.1 µM (active), respectively.

For the compound `COCCNC(=O)NC1(C(F)(F)F)Oc2cc(Cl)c(Cl)cc2O1`, the IC50 in assay [13] is > 100 µM (inactive).

Consider `O=C(NCc1n[nH]c(=S)n1-c1ccccc1)c1ccco1`, for which the IC50 at Coagulation factor XII is > 50 µM (inactive).

As for `O=[N+]([O-])c1ccc(/C=C/C2=NN(c3ccccc3)C(c3ccco3)C2)cc1` (stereo unspecified), the EC50 at Troponin, cardiac muscle is 0.397 µM (active).

Turning to `CC(C)NCC(=O)c1ccc(O)c(O)c1`, the IC50 in assay [14] is > 100 µM (inactive).

For `Cn1c(-c2ccc(C=O)s2)nc2c3ccccc3c3ccccc3c21`, the IC50 is > 100 µM (inactive) at SUMO-activating enzyme and > 20 µM (inactive) in assay [17]. Moreover, the EC50 in assay [15] was 25.7 µM (active); in assay [16] it was 24.9 µM (active).

In the case of `COc1cc(CNCCc2ccccc2)ccc1OCc1ccc(Cl)nc1`, the IC50 in [18] is 30.1 µM (active).

For the compound `O=C(c1ccccc1)C(c1ccccc1)c1ccccc1`, the AC50 in assay [19] was > 56 µM (inactive).

Consider `Cc1ccc(C)c(-n2[se]c3ccccc3c2=O)c1`, for which the IC50 in assay [5] is 88 µM (active); at Phosphomannomutase 2 it was > 100 µM (inactive); in assay [20], 36 µM (inactive).

For the compound `Cc1ccc(NC(=O)c2cc(NC(=O)c3ccco3)ccc2N2CCCCC2)cc1`, the “Absolute IC50 (CHOP)” value in [21] amounted to 10 µM. Further, the “Absolute IC50 (XBP1)” value on X-box-binding protein 1 came out at 10 µM.

Regarding `COC(=O)C1OC2(OC1C(=O)OC)c1ccccc1-c1ccccc12` (stereo unspecified), the EC50 on Integrin alpha-4 is 7.14 µM (active).
